Experimental data taken from ChEMBL document CHEMBL5316347, “Design, Synthesis, and Biological Evaluation of Bipyridazine Derivatives as Stimulator of Interferon Genes (STING) Receptor Agonists” (J Med Chem, 2023).
pEC50, pIC50: −log10 of the molar value. Activity calls are given as the source filed them. The calls are words filed in the database; no cut-off is given here.

Key:
[1] = biological target: T1, Stimulator of interferon genes protein (Mus musculus, UniProt Q3TBT3); assay: Agonist activity at mouse STING in mouse RAW-Lucia ISG cells incubated for 24 hrs in presence of PMA by luciferase reporter assay; type: cell-based
T1 sequence (Q3TBT3 whole entry): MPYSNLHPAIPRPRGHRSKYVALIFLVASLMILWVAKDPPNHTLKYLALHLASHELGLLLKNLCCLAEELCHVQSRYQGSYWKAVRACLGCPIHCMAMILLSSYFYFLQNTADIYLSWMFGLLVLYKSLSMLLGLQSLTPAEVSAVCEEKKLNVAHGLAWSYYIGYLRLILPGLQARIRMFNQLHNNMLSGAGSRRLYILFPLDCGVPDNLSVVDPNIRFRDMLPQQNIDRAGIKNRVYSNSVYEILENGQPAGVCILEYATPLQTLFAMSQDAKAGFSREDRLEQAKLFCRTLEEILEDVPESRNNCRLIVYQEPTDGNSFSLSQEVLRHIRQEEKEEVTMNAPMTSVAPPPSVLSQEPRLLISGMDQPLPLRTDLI

[2] = biological target: T2, Stimulator of interferon genes protein (Homo sapiens, UniProt Q86WV6); assay: Agonist activity at human STING in STING knockout human THP1-Blue ISG cells incubated for 24 hrs in presence of PMA by luciferase reporter assay; type: cell-based
[3] = biological target: T2, Stimulator of interferon genes protein; assay: Agonist activity at human STING in human THP1-Blue ISG cells incubated for 24 hrs in presence of PMA by luciferase reporter assay; type: cell-based
[4] = biological target: T1, Stimulator of interferon genes protein; assay: Agonist activity at mouse STING in STING knockout mouse RAW-Lucia ISG cells incubated for 24 hrs in presence of PMA by luciferase reporter assay; type: cell-based
[5] = test system: Stimulator of interferon genes protein (Homo sapiens), Q86WV6 [UNDEFINED MUTATION]; conditions: dose 50.0 µM
[6] = MRT(0 to infinity) in C57BL/6 mouse at 10 mg/kg, iv qd measured upto 24 hrs by LC-MS/MS analysis; type: ADME, organism-based; conditions: in vivo
[7] = test system: THP-1; assay: Cytotoxicity against human THP-1 cells assessed as inhibition of cell growth upto 40 uM measured after 24 hrs in presence of PMA by CellTiter-Glo viability assay; type: toxicity, cell-based; conditions: thp-1, 24 h
[8] = AUC(0 to t) in C57BL/6 mouse at 10 mg/kg, iv qd measured upto 24 hrs by LC-MS/MS analysis; type: ADME, organism-based; set-up: dose 10 mg/kg, time < 24 hrs, route iv; conditions: in vivo
[9] = Half life in C57BL/6 mouse at 10 mg/kg, iv qd measured upto 24 hrs by LC-MS/MS analysis; type: ADME, organism-based; conditions: in vivo
[10] = biological target: T1, Stimulator of interferon genes protein; assay: Agonist activity at mouse 6His-tagged recombinant STING CTD (144 to 378 residues) expressed in Escherichia coli BL21 (DE3) incubated for 10 mins by FRET assay
[11] = Clearance in C57BL/6 mouse at 10 mg/kg, iv qd measured upto 24 hrs by LC-MS/MS analysis; type: ADME, organism-based; conditions: in vivo
[12] = Volume of distribution at steady state in C57BL/6 mouse at 10 mg/kg, iv qd measured upto 24 hrs by LC-MS/MS analysis; type: ADME, organism-based; conditions: in vivo, read-out: Vdss
[13] = AUC(0 to infinity) in C57BL/6 mouse at 10 mg/kg, iv qd measured upto 24 hrs by LC-MS/MS analysis; type: ADME, organism-based; set-up: time < 24 hrs, dose 10 mg/kg, route iv; conditions: in vivo
[14] = test system: B16-F10; assay: Antitumor activity against mouse B16-F10 cells implanted in C57BL/6 mouse assessed tumor growth inhibition at 10 mg/kg, ip qd measured for 14 days; type: functional, organism-based; conditions: time 14.0 day
[15] = biological target: T3, Stimulator of interferon genes protein (Mus musculus) (UniProt Q3TBT3); assay: Binding affinity to mouse 6His-tagged recombinant STING CTD (144 to 378 residues) expressed in Escherichia coli BL21 (DE3) assessed as thermal stability at 50 uM by measuring change in melting temperature by SYPRO orange dye based analysis; conditions: filed as agonist
T3 sequence (whole entry): T1 sequence (Q3TBT3 whole entry)

[16] = test system: B16-F10; assay: Antitumor activity against mouse B16-F10 cells implanted in C57BL/6 mouse assessed tumor growth inhibition at 30 mg/kg, ip qd measured for 14 days; type: functional, organism-based; conditions: time 14.0 day
[17] = Toxicity in C57BL/6 mouse implanted with mouse B16-F10 cells assessed as body weight loss at 10 mg/kg, […] measured for 14 days; type: organism-based; conditions: in vivo, 336 h, time 14 day

T2 sequence (Q86WV6 whole entry): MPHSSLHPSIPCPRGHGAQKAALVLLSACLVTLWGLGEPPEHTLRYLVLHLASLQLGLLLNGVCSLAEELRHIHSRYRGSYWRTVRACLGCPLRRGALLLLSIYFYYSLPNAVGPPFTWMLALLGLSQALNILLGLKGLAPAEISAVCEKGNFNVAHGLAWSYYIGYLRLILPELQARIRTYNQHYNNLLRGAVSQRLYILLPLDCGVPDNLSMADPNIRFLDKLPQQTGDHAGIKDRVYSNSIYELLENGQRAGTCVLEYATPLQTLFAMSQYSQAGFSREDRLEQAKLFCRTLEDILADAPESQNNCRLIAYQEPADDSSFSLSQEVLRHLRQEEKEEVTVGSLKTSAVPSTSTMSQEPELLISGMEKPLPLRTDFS
Sequence of Stimulator of interferon genes protein (Homo sapiens), Q86WV6 [UNDEFINED MUTATION] (Q86WV6 whole entry, looked up, change not shown): as the sequence (Q86WV6 whole entry) above

Compound: COc1cc2cc(C(=O)CCC(=O)O)sc2cc1OC
- pEC50 [1]: 4.46
- pEC50 [2]: < 4.00
- pEC50 [3]: 5.45
- pEC50 [4]: < 3.70

Compound: O=C(Nc1cc(C(F)(F)F)ccc1C(=O)O)c1ccc(-c2ccnnc2)nn1
- ΔTm [5]: 0 °C
- pEC50 [3]: < 4.00

Compound: O=C(Nc1cc(F)c(F)cc1C(=O)O)c1ccc(-c2cncnc2)nn1
- ΔTm [5]: 0 °C
- pEC50 [3]: 4.49

Compound: O=C(Nc1cc(F)c(F)cc1C(=O)O)c1ccc(-c2ccoc2)nn1
- ΔTm [5]: 0 °C
- pEC50 [3]: 4.42

Compound: O=C(Nc1ccc(Br)cc1C(=O)O)c1ccc(-c2ccnnc2)nn1
- ΔTm ([5]; filed as agonist): 3.5 °C
- pEC50 [3]: 5.35

Compound: COc1cc(NC(=O)c2ccc(-c3ccnnc3)nn2)c(C(=O)O)cc1OC
- ΔTm ([5]; filed as agonist): 0.5 °C
- pEC50 [3]: 4.67

Compound: CCCn1c(NC(=O)c2cc(C)nn2CC)nc2cc(C(N)=O)cc(OC3COC3)c21
- pEC50 [1]: 5.28
- MRT inf [6]: 0.894 h
- Activity [7]: Toxic
- AUC(0-t) at 24 h [8]: 3820 ng·h/mL
- pEC50 [4]: < 3.70
- half-life [9]: 1.13 h
- pIC50 [10]: 5.36
- clearance [11]: 43.8 mL/min/kg
- Vd [12]: 2.38 L/kg
- AUC(0-inf) [13]: 3830 ng·h/mL

Compound: O=C(Nc1ccccc1C(=O)O)c1ccc(-c2ccnnc2)nn1
- ΔTm ([5]; filed as agonist): 0.5 °C
- pEC50 [3]: < 4.00

Compound: O=C(Nc1cc(F)c(F)cc1C(=O)O)c1ccc(-n2ccnc2)nn1
- MRT inf [6]: 0.495 h
- inhibition [14]: inactive
- AUC(0-t) at 24 h [8]: 1360 ng·h/mL
- pEC50 [4]: < 3.70
- ΔTm [15]: 9 °C
- half-life [9]: 1.82 h
- pIC50 [10]: 5.80
- clearance [11]: 123 mL/min/kg
- Vd [12]: 3.62 L/kg
- inhibition [16]: Active
- AUC(0-inf) [13]: 1370 ng·h/mL

Compound: C#Cc1cc(NC(=O)c2ccc(-c3ccnnc3)nn2)c(C(=O)O)cc1F
- pEC50 [1]: 4.89
- MRT inf [6]: 1.06 h
- Activity [7]: Non-Toxic
- AUC(0-t) at 24 h [8]: 4390 ng·h/mL
- Activity [17]: Non-Toxic
- pEC50 [4]: < 3.70
- half-life [9]: 2.1 h
- pIC50 [10]: 6.02
- clearance [11]: 37.8 mL/min/kg
- Vd [12]: 2.39 L/kg
- AUC(0-inf) [13]: 4410 ng·h/mL

Compound: Cn1cc(-c2ccc(C(=O)Nc3cc(F)c(F)cc3C(=O)O)nn2)cn1
- ΔTm ([5]; filed as agonist): 0 °C
- pEC50 [3]: 4.69

Compound: O=C(Nc1ccc(C(F)(F)F)cc1C(=O)O)c1ccc(-c2ccnnc2)nn1
- ΔTm ([5]; filed as agonist): 3.5 °C
- pEC50 [3]: 2.71

Compound: O=C(Nc1cc(F)c(F)cc1C(=O)O)c1ccc(N2CCOCC2)nn1
- ΔTm [5]: 0 °C
- pEC50 [3]: < 4.00

Compound: O=C(Nc1cc(F)c(F)cc1C(=O)O)c1ccc(-n2cccc2)nn1
- ΔTm ([5]; filed as agonist): 0.5 °C
- pEC50 [3]: 4.47

Compound: O=C(Nc1cc(F)c(F)cc1C(=O)O)c1ccc(-c2cccnc2)nn1
- ΔTm [5]: 0 °C
- pEC50 [3]: 4.49

Compound: N#Cc1ccn(-c2ccc(C(=O)Nc3cc(F)c(F)cc3C(=O)O)nn2)c1
- ΔTm ([5]; filed as agonist): 3.5 °C
- pEC50 [3]: 4.98

Compound: Cc1cncn1-c1ccc(C(=O)Nc2cc(F)c(F)cc2C(=O)O)nn1
- ΔTm [5]: 0 °C
- pEC50 [3]: 4.64

Compound: CC(=O)c1ccn(-c2ccc(C(=O)Nc3cc(F)c(F)cc3C(=O)O)nn2)c1
- ΔTm [5]: 0 °C
- pEC50 [3]: 4.52

Compound: O=C(Nc1cc(Br)c(F)cc1C(=O)O)c1ccc(-c2ccnnc2)nn1
- pEC50 [1]: 4.38
- Activity [7]: Non-Toxic
- pEC50 [4]: < 3.70
- pIC50 [10]: 5.72

Compound: COc1ccc(C(=O)O)c(NC(=O)c2ccc(-c3ccnnc3)nn2)c1
- ΔTm ([5]; filed as agonist): 1.5 °C
- pEC50 [3]: 5.22

Compound: O=C(Nc1cc(F)c(F)cc1C(=O)O)c1ccc(-n2cncn2)nn1
- ΔTm ([5]; filed as agonist): 1.5 °C
- pEC50 [3]: 4.94

Compound: O=C(Nc1cc(Br)ccc1C(=O)O)c1ccc(-c2ccnnc2)nn1
- pEC50 [1]: < 3.70
- Activity [7]: Non-Toxic
- pEC50 [4]: < 3.70

Compound: O=C(Nc1cc(F)c(F)cc1C(=O)O)c1ccc(Nc2cn[nH]c2)nn1
- ΔTm ([5]; filed as agonist): 1 °C
- pEC50 [3]: 4.65

Compound: O=C(Nc1cc(F)c(F)cc1C(=O)O)c1ccc(-c2cnsc2)nn1
- ΔTm ([5]; filed as agonist): 3.5 °C
- pEC50 [3]: 4.75

Compound: O=C(Nc1cc(Cl)c(F)cc1C(=O)O)c1ccc(-c2ccnnc2)nn1
- pEC50 [1]: 4.45
- Activity [7]: Non-Toxic
- pEC50 [4]: < 3.70
- pIC50 [10]: 6.03

Compound: O=C(Nc1cc(F)c(F)cc1C(=O)O)c1ccc(-c2ccnnc2)nn1
- ΔTm ([5]; filed as agonist): 6 °C
- pEC50 [3]: 4.75

Compound: O=C(Nc1cc(F)c(F)cc1C(=O)O)c1ccc(N2CCCC2)nn1
- ΔTm ([5]; filed as agonist): -1 °C
- pEC50 [3]: < 4.00

Compound: COc1ccc(NC(=O)c2ccc(-c3ccnnc3)nn2)c(C(=O)O)c1
- ΔTm [5]: 0 °C
- pEC50 [3]: < 4.00
